Test system: Plasmodium berghei
Test: Luciferase/luciferin-expressing antifolate-resistant parasites were used to infect a culture of HepG2 cells that were pre-incubated with compounds. Infected hepatocytes emit light due to the luciferase reaction. Assay results are presented as the percent inhibition of light emission compared to control. […]
Type: functional
Conditions: sporozoite; for IC90: read-out: LUCIFERASE INFECTION ASSAY - IC90
[1] = read-out: LUCIFERASE INFECTION ASSAY - IC50

| SMILES | IC90 | IC50 [1] | also measured |
| --- | --- | --- | --- |
| CC1CCCC(N=C2NN=C(c3c[nH]c(C(=O)N4CCCC4)c3)CS2)C1C (centres undefined) | > 10 µM |  | IC50 (HEPG2TOX_HILL_SLOPE 0.0793, HEPG2TOX_R_SQUARED 0.0179, read-out: LUCIFERASE INFECTION ASSAY - IC50): > 10 µM |
| Cc1sc(-c2ccco2)nc1C(=O)Nn1cnc2ccccc21 | > 10 µM | > 10 µM |  |
| CN(Cc1ccc2c(c1)OCO2)c1ccc(C(=O)NC2CC2)cn1 | > 10 µM |  | IC50 (PBLUC_HILL_SLOPE 3.82, PBLUC_R_SQUARED 0.17, read-out: LUCIFERASE INFECTION ASSAY - IC50): 6.72 µM |
| CC(C)c1cccc(Nc2nnc(C(O)c3ccccc3Cl)s2)c1 (centres undefined) | > 10 µM | > 10 µM |  |
| Cc1nc(C(=O)N2CCC(C)(C(=O)NS(=O)(=O)C3CC3)C2)c(C)o1 (centres undefined) | > 9.28 µM | > 9.28 µM |  |
| COc1cc(-c2cc3nc(Nc4ccc5c[nH]nc5c4)ccn3n2)cc(OC)c1OC | > 7.92 µM |  | IC50 (PBLUC_HILL_SLOPE 11.7, PBLUC_R_SQUARED 0.319, read-out: LUCIFERASE INFECTION ASSAY - IC50): 7.27 µM |
| Fc1ccc(-c2cc3[nH]c(NCc4ccccc4)nc3cn2)cc1Cl | 5.42 µM |  | IC50 (HEPG2TOX_HILL_SLOPE 17.8, HEPG2TOX_R_SQUARED 0.722, PBLUC_HILL_SLOPE 354, PBLUC_R_SQUARED 0.159, read-out: LUCIFERASE INFECTION ASSAY - IC50): 5.38 µM |
| CCc1ccc(Cl)c(CC)c1NC(=O)Cc1c(C)nn(CC(C)C)c1C | 4.06 µM |  | IC50 (PBLUC_HILL_SLOPE 11.4, PBLUC_R_SQUARED 0.518, read-out: LUCIFERASE INFECTION ASSAY - IC50): 3.35 µM |
| COc1ccc(OC)c(-c2csc(NC(=O)c3[nH]c(C)c(C(C)=O)c3C)n2)c1 | > 10 µM |  | IC50 (PBLUC_HILL_SLOPE 2.64, PBLUC_R_SQUARED 0.217, read-out: LUCIFERASE INFECTION ASSAY - IC50): 5.92 µM |
| CNc1snc(C)c1C(=O)NCC(C(C)C)N1CCc2ccccc2C1 (centres undefined) | > 10 µM | > 10 µM |  |
| COc1ccc(CCC2CCN(C(=O)c3cc(S(N)(=O)=O)c(Cl)cc3Cl)CC2)cc1 | > 10 µM |  | IC50 (PBLUC_HILL_SLOPE 15.3, 12.1, PBLUC_R_SQUARED 0.180, 0.0239, read-out: LUCIFERASE INFECTION ASSAY - IC50): 9.53 µM |
| CCOC(=O)c1sc(SCc2ccccc2)c2c1CC(c1ccc(C)cc1)CC2O (centres undefined) | > 7.52 µM |  | IC50 (FFLUC_HILL_SLOPE 27.4, FFLUC_R_SQUARED 0.148, read-out: LUCIFERASE INFECTION ASSAY - IC50): > 7.52 µM |
| O=C(O)Cc1c(-c2ccc3c(c2)OCCO3)nc2ccc([N+](=O)[O-])cc2c1-c1ccccc1 | 8.54 µM |  | IC50 (HEPG2TOX_HILL_SLOPE 0.567, HEPG2TOX_R_SQUARED 0.724, PBLUC_HILL_SLOPE 1.12, 2.95, PBLUC_R_SQUARED 0.872, 0.627, read-out: LUCIFERASE INFECTION ASSAY - IC50): 3.34 µM |
| N#Cc1cc(-c2nc(-c3ccccc3)cs2)c(N)[nH]c1=S | > 10 µM |  | IC50 (PBLUC_HILL_SLOPE 3, PBLUC_R_SQUARED 0.293, read-out: LUCIFERASE INFECTION ASSAY - IC50): 6.32 µM |
| CC(C)C(CNc1ncnc2cc(Cl)ccc12)N1CCN(C)CC1 (centres undefined) | > 10 µM |  | IC50 (HEPG2TOX_HILL_SLOPE 6.21, HEPG2TOX_R_SQUARED 0.178, read-out: LUCIFERASE INFECTION ASSAY - IC50): > 10 µM |
| COc1cc(CSc2nc3ccccc3c(=O)n2C(C)C)ccc1OC(F)F | 3.99 µM |  | IC50 (HEPG2TOX_HILL_SLOPE 1.32, HEPG2TOX_R_SQUARED 0.932, PBLUC_HILL_SLOPE 1.38, PBLUC_R_SQUARED 0.834, read-out: LUCIFERASE INFECTION ASSAY - IC50): 0.81 µM |
| Cc1cccc2sc(N(Cc3ccccc3)C(=O)C3CCN(C(=O)C(C)(C)C)CC3)nc12 | > 10 µM | > 10 µM |  |
| CN1C(=O)N(Cc2ccc3ccccc3c2)C(=O)C12CCN(Cc1cnn(-c3ccc(F)cc3)c1)CC2 | 2.54 µM |  | IC50 (HEPG2TOX_HILL_SLOPE 1.74, HEPG2TOX_R_SQUARED 0.906, PBLUC_HILL_SLOPE 10.4, PBLUC_R_SQUARED 0.489, read-out: LUCIFERASE INFECTION ASSAY - IC50): 2.06 µM |
| O=C(Nc1cccc(C(F)(F)F)c1)Nc1ccc2nc(Cc3ccccc3)nn2c1 | 3.8 µM |  | IC50 (HEPG2TOX_HILL_SLOPE 10.6, HEPG2TOX_R_SQUARED 0.963, PBLUC_HILL_SLOPE 15.5, PBLUC_R_SQUARED 0.643, read-out: LUCIFERASE INFECTION ASSAY - IC50): 3.3 µM |
| CC(CN1CCC2(CC1)C(=O)N(Cc1ccccn1)C(=O)N2Cc1ccccc1)c1ccccc1 (centres undefined) | > 7.04 µM |  | IC50 (PBLUC_HILL_SLOPE 2.23, PBLUC_R_SQUARED 0.302, read-out: LUCIFERASE INFECTION ASSAY - IC50): > 7.04 µM |
| Cc1cc(N2CCOCC2)ccc1NC(=O)CC1C=CCC1 (centres undefined) | > 10 µM | > 10 µM |  |

| SMILES | IC90 | IC50 [1] | also measured |
| --- | --- | --- | --- |
| CC(C)n1ncc2cc(C(=O)Nc3nc4c(s3)CCCC4)cnc21 | 0.68 µM |  | IC50 (FFLUC_HILL_SLOPE 1.2, FFLUC_R_SQUARED 0.643, HEPG2TOX_HILL_SLOPE 0.617, HEPG2TOX_R_SQUARED 0.917, PBLUC_HILL_SLOPE 0.702, PBLUC_R_SQUARED 0.926, read-out: LUCIFERASE INFECTION ASSAY - IC50): 0.0298 µM |
| c1ccc(-c2ccc3ncc(-c4cccnc4)n3n2)cc1 | 3.68 µM |  | IC50 (HEPG2TOX_HILL_SLOPE 3.18, HEPG2TOX_R_SQUARED 0.875, PBLUC_HILL_SLOPE 8.44, PBLUC_R_SQUARED 0.581, read-out: LUCIFERASE INFECTION ASSAY - IC50): 2.84 µM |
| COCCNc1nc2cnc(-c3cccc(Oc4ccccc4)c3)cc2n1C | > 10 µM |  | IC50 (PBLUC_HILL_SLOPE 2.22, PBLUC_R_SQUARED 0.147, read-out: LUCIFERASE INFECTION ASSAY - IC50): 6.81 µM |
| CCOC(=O)c1cnn(-c2cccc(NC(=O)c3ccc(SC)c([N+](=O)[O-])c3)c2)c1C | > 10 µM | > 10 µM |  |
| CCn1c(=O)n(CC(=O)Nc2ccc(NC(=O)NC3CC3)cc2)c2ccccc21 | > 10 µM | > 10 µM |  |
| CCN(C(=O)COC(=O)c1nc(-c2ccccc2)n2c1CCCCC2)c1ccccc1 | > 10 µM | > 10 µM |  |
| Cc1cc(-n2c(-c3cccnc3Oc3ccccc3)n[nH]c2=S)ccc1Br | > 7.51 µM |  | IC50 (PBLUC_HILL_SLOPE 0.263, PBLUC_R_SQUARED 0.232, read-out: LUCIFERASE INFECTION ASSAY - IC50): > 7.51 µM |
| Cc1ccc(-c2noc(CN3CCN(c4cc(C)nc(N)n4)CC3)n2)cc1 | > 10 µM |  | IC50 (HEPG2TOX_HILL_SLOPE 1.35, HEPG2TOX_R_SQUARED 0.853, PBLUC_HILL_SLOPE 1.09, PBLUC_R_SQUARED 0.613, read-out: LUCIFERASE INFECTION ASSAY - IC50): 1.45 µM |
| CN(c1ccccc1)c1ccc(/C=N/NC(=O)c2ccc3c(=O)n4c(nc3c2)CCCCC4)cc1 | > 10 µM |  | IC50 (PBLUC_HILL_SLOPE 3.8, PBLUC_R_SQUARED 0.483, read-out: LUCIFERASE INFECTION ASSAY - IC50): 6.28 µM |
| CC(=O)Nc1cnc(-c2ccccc2N(C)C)cn1 | > 12.9 µM | > 12.9 µM |  |
| Cc1cc(SCC(=O)NC(C)C2CC3CCC2C3)n2c(nc3ccccc32)c1C#N (centres undefined) | 3.54 µM |  | IC50 (HEPG2TOX_HILL_SLOPE 6.37, HEPG2TOX_R_SQUARED 0.94, PBLUC_HILL_SLOPE 33.9, PBLUC_R_SQUARED 0.41, read-out: LUCIFERASE INFECTION ASSAY - IC50): 3.32 µM |
| CCOc1ccc(C(=O)c2c(-c3ccccc3)c3c4n(c(COc5cc(C)ccc5C(C)C)nn24)CCCC3)cc1 | > 10 µM | 8.64 µM |  |
| CCC(C)(C)c1ccc(Oc2ccc(NC(=O)COC(=O)CNC(=O)c3ccc(C)c(C)c3)cc2)cc1 | > 10 µM |  | IC50 (PBLUC_HILL_SLOPE 2.53, PBLUC_R_SQUARED 0.335, read-out: LUCIFERASE INFECTION ASSAY - IC50): 6.55 µM |
| O=C(Nn1cn[nH]c1=S)c1ccc2ccccc2n1 | > 10 µM |  | IC50 (HEPG2TOX_HILL_SLOPE 3, HEPG2TOX_R_SQUARED 0.551, PBLUC_HILL_SLOPE 3.2, PBLUC_R_SQUARED 0.429, read-out: LUCIFERASE INFECTION ASSAY - IC50): 5.8 µM |
| COc1cccc(/C=c2\s/c(=C\C(=O)C(C)(C)C)n(C)c2=O)c1OC(C)C | > 10 µM |  | IC50 (HEPG2TOX_HILL_SLOPE 1.82, HEPG2TOX_R_SQUARED 0.577, PBLUC_HILL_SLOPE 1.88, PBLUC_R_SQUARED 0.501, read-out: LUCIFERASE INFECTION ASSAY - IC50): 8.5 µM |
| COC(=O)c1cc(OC)c(OC)cc1NC(=O)c1ccccc1Br | > 8.37 µM | > 8.37 µM |  |
| CS(=O)(=O)c1cccc(S(=O)(=O)Oc2ccc(C34CC5CC(CC(C5)C3)C4)cc2)c1 | > 10 µM |  | IC50 (HEPG2TOX_HILL_SLOPE 12.1, HEPG2TOX_R_SQUARED 0.709, PBLUC_HILL_SLOPE 2.69, PBLUC_R_SQUARED 0.465, read-out: LUCIFERASE INFECTION ASSAY - IC50): 4.49 µM |
| Cc1ccc(NC(=S)Nc2ccc(Cl)cc2)cc1F | > 11.2 µM | > 11.2 µM |  |
| Cc1ccc(-c2cc(C(=O)NNC(=O)CC34CC5CC(CC(C5)C3)C4)c3ccccc3n2)cc1 | > 10 µM | > 10 µM |  |
| CN(C)CCNC(=O)c1ccc(-c2cn3c(-c4ccc5c(ccn5C)c4)cnc3cn2)cc1 | > 7.53 µM |  | IC50 (PBLUC_HILL_SLOPE 3.24, PBLUC_R_SQUARED 0.242, read-out: LUCIFERASE INFECTION ASSAY - IC50): > 7.53 µM |
| COc1cc(C(=O)N/N=C2/C(=O)c3cccc4cccc2c34)cc(OC)c1OC | 3.67 µM |  | IC50 (HEPG2TOX_HILL_SLOPE 1.4, HEPG2TOX_R_SQUARED 0.956, PBLUC_HILL_SLOPE 15.6, PBLUC_R_SQUARED 0.526, read-out: LUCIFERASE INFECTION ASSAY - IC50): 3.19 µM |
